Laboratory results: patent publication US6403561B1, “Tripeptidylpeptidase inhibitors” (Institut National de la Sante et de la Recherche Medicale …, priority 1998, dated 2002)
Structures can show the parent of a compound that is named as a salt. Where a SMILES comes first, the peptide text is derived from it. [ ]: non-standard residue; d: D form. The star is where a group is joined. Oic = O=C(O)[C@@H]1C[C@@H]2CCCC[C@@H]2N1; Tic = O=C(O)[C@@H]1Cc2ccccc2CN1; Abu = CC[C@H](N)C(=O)O; NHBu = CCCCN*; NHPr = CCCN*

Assays:
[1] = target: membrane-bound tripeptidylpeptidase II (Rattus norvegicus, UniProt Q64560); experiment: Measurement of the activity of membrane-bound tripeptidylpeptidase (release of Amc from A-AP-Amc, fluorimetry); settings: apparent dissociation constant calculated from the 50% inhibitory concentration and the KM of the substrate (23 μM), rat brain membranes, 50 μM A-AP-Amc
Chain of membrane-bound tripeptidylpeptidase II (Q64560 whole entry): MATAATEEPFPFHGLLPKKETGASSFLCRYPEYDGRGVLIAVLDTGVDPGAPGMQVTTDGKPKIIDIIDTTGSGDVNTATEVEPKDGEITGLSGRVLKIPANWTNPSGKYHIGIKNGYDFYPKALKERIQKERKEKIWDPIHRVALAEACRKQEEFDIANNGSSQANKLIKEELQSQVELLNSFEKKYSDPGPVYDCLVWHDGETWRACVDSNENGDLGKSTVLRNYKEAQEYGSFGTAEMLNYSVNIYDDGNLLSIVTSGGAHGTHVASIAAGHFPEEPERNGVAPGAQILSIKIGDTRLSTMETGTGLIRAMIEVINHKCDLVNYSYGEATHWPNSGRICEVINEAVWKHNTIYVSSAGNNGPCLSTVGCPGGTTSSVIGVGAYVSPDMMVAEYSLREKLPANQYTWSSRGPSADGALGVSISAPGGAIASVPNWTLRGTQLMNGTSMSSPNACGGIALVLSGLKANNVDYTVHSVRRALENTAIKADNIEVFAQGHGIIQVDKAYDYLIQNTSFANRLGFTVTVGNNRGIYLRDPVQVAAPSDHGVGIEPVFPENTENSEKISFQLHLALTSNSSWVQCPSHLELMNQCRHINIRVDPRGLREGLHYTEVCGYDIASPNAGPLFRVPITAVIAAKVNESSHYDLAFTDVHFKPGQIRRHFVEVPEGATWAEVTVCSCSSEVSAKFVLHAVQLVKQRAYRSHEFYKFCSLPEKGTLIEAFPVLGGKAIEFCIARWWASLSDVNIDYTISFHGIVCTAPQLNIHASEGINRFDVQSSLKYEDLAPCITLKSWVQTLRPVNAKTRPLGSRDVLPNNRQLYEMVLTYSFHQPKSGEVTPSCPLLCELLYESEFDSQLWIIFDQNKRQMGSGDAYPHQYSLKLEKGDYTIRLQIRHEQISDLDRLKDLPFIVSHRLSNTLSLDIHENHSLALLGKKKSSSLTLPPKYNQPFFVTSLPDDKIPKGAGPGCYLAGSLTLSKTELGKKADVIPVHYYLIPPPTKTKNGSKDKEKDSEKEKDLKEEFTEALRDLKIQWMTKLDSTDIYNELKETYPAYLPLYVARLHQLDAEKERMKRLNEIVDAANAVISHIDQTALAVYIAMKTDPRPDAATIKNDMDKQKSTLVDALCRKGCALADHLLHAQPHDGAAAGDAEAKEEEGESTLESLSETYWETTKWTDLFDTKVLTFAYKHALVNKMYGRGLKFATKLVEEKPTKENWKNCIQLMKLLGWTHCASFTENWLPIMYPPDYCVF
Description: Membranes from rat brain were obtained by centrifugation (200,000×g min) of a homogenate prepared in 10 volumes of 50 mM potassium phosphate buffer, pH 7.4.
After washing thoroughly, the centrifugation pellet is taken up in the buffer containing 10% glycerol and 0.1% Brij 35 in order to obtain a concentration of 25 mg of proteins/ml.
The release of Amc is evaluated by fluorimetry.

liver TPP II = target: T1, liver TPP II (Mus musculus, UniProt Q64514); experiment: Inhibitory activity of TPP II ex vivo after administration to a rodent; assay type: in vivo; settings: mice, 90 minutes after oral administration of 10 mg/kg
T1 construct: measuring the residual catalytic activity on membranes from brain or from a peripheral organ; from tissue; host or cells: mouse liver (membranes), ex vivo after oral dosing
T1 sequence (Q64514 whole entry): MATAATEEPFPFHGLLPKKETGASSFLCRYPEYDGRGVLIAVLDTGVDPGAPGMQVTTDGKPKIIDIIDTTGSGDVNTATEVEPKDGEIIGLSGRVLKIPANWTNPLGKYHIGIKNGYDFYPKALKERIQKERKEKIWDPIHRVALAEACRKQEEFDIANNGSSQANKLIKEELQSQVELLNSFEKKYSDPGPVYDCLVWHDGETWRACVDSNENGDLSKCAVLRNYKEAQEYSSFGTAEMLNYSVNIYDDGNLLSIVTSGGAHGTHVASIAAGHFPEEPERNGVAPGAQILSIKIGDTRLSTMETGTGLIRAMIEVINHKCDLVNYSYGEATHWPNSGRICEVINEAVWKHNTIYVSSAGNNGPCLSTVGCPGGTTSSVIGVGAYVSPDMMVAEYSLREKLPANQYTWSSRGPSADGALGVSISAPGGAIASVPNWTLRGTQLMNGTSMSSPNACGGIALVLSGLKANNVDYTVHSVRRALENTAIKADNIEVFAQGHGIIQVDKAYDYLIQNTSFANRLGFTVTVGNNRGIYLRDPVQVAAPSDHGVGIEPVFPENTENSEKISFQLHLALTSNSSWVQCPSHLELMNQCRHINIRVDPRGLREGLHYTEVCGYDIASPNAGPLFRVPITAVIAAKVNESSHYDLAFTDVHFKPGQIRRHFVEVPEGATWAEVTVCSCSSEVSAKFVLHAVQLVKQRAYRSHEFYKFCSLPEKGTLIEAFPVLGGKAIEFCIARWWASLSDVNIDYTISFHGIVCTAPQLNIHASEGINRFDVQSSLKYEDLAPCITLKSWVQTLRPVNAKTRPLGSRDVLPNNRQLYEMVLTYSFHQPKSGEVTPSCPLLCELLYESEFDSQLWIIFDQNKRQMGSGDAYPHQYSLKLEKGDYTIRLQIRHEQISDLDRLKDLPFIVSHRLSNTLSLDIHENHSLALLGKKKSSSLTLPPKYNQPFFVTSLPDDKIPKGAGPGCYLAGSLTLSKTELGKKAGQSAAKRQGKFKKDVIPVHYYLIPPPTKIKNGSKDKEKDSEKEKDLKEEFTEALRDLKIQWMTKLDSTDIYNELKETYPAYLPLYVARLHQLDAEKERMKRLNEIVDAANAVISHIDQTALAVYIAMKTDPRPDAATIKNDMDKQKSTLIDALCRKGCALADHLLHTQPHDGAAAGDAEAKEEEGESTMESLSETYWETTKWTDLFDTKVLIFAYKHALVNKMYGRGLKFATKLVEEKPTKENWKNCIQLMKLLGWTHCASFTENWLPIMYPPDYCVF
Description: This test is completed by an evaluation of the inhibitory activity of TPP II “ex vivo”, which consists in administering a compound according to the invention to a rodent and in measuring the residual catalytic activity on membranes from brain or from a peripheral organ.
For example, the activity of liver TPP II measured in mice 90 minutes after oral administration of 10 mg/kg of the compound of Example 9 is about 90-100% inhibited.

[2] = Anorexigenic (pro-satiety) activity: spontaneous taking of solid food; assay type: in vivo; settings: mice, 10 mg/kg intravenously, 30 to 90 minutes after free access to food, after overnight fasting
Description: In mice, at a dose of 10 mg/kg (intravenously), this compound decreases the spontaneous taking of solid food (“UAR” tablet) by 45%, measured over a period of 30 to 90 minutes after free access to this food (period preceded by fasting overnight and oral administration of 0.2 ml of a semi-liquid meal).

endogenous CCK-8 = experiment: Protection of endogenous CCK-8 released from slices of depolarized rat cerebral cortex (radioimmunoassay); assay type: cell-based; settings: concentration of 1 μM
Description: At a concentration of 1 μM, it multiplies the recovery of released CCK-8 4-fold (measured by radioimmunoassay).

SMILES | melting point [°C] | further results
CC[C@H](C)CNC(=O)[C@@H]1CCCN1C(=O)[C@@H](N)CC (as salt: oxalate) [Example 5, 1-(2(S)-aminobutyryl)-L-proline [2(S)methyl]butylamide] | 135 to 136 | –
CCCCNC(=O)[C@@H]1CCCN1C(=O)[C@@H](N)C(C)C (as salt: oxalate) [Example 8, L-valyl-L-proline n-butylamide] (H-Val-Pro-NHBu) | 165 to 166 | –
CCCCNC(=O)[C@@H]1Cc2ccccc2CN1C(=O)[C@@H](N)CC (as salt: oxalate) [Example 13, 2-(2(S)-amino-butyryl)-1,2,3,4-tetrahydro-3(S)-isoquinolinecarboxylic Acid n-butylamide] (H-[Abu]-[Tic]-NHBu) | 105 to 110 | –
CCCCNC(=O)[C@@H]1C[C@@H]2CCCC[C@@H]2N1C(=O)[C@@H](N)CC (as salt: salt) [Example 22, 1-(2(S)-aminobutyryl)-2(S)-[(3aS,7aS)-perhydro]indolinecarboxylic Acid N-butylamide] (H-[Abu]-[Oic]-NHBu) | 168 to 169 | –
CCCNC(=O)[C@@H]1CCCN1C(=O)[C@@H](N)CC (as salt: trifluoroacetate) [Example 6, 1-(2(S)-amino-butyryl)-L-proline n-propylamide] (H-[Abu]-Pro-NHPr) | 46 to 51 | –
CC[C@H](N)C(=O)N1CCC[C@H]1C(=O)NCC(C)C (as salt: trifluoroacetate) [Example 7, 1-(2(S)-amino-butyryl)-L-proline isobutylamide] | 58 to 61 | –
CCCCNC(=O)C1Cc2cc(OC)ccc2N1C(=O)[C@@H](N)CC (mixture of isomers) (as salt: oxalate) [Example 18, 1-(2(S)-amino-butyryl)-2(R/S)-(5-methoxy)indolinecarboxylic Acid n-butylamide] | 95 to 105 | –
CCCCNC(=O)C1Cc2cc(F)ccc2N1C(=O)[C@@H](N)CC (mixture of isomers) (as salt: oxalate) [Example 20, 1-(2(S)-aminobutyryl)-2(R/S)-(5-fluoro)indolinecarboxylic Acid N-butylamide] | 105 to 110 | –
CCCCNC(=O)C1c2ccccc2CN1C(=O)[C@@H](N)CC (mixture of isomers) (as salt: oxalate) [Example 23, 2-(2(S)-aminobutyryl)-1-(R/S)-isoindolinecarboxylic Acid N-butylamide] | 90 to 92 | –
CCCCNC(=O)C1Cc2cc(OC)ccc2N1C(=O)[C@@H](N)C(C)C.O=C(O)C(=O)O (mixture of isomers) [Example 24, 1-(L-valyl)-5-methoxyindoline-2(R/S)-carboxylic Acid Butylamide Oxalate] | 112 to 120 | –
CCCCNC(=O)C1Cc2cc(OC)ccc2N1C(=O)[C@H](C)N.O=C(O)C(=O)O (mixture of isomers) [Example 25, 1-(L-alanyl)-5-methoxyindoline-2(R/S)-carboxylic Acid Butylamide Oxalate] | 112 to 118 | –
CCCCNC(=O)C1Cc2c(OC)cccc2N1C(=O)[C@@H](N)CC.O=C(O)C(=O)O (mixture of isomers) [Example 27, 1-(2(S)-aminobutyryl)-4-methoxyindoline-2(R/S)-carboxylic Acid Butylamide Oxalate] | 117 to 119 | –
CCCCNC(=O)C1N(C(=O)[C@@H](N)CC)c2ccccc2C1(C)C.O=C(O)C(=O)O (mixture of isomers) [Example 28, 1-(2(S)-aminobutyryl)-3,3-dimethylindoline-2(R/S)-carboxylic Acid Butylamide Oxalate] | 127 to 133 | –
CCCCNC(=O)C1Cc2c(ccc(OC)c2OC)N1C(=O)[C@@H](N)CC.O=C(O)C(=O)O (mixture of isomers) [Example 32, 1-(2(S)-aminobutyryl)-4,5-dimethoxyindoline-2(R/S)-carboxylic Acid Butylamide Oxalate] | 196.1 to 197.5 | –
CCCCNC(=O)C1Cc2cc(O)ccc2N1C(=O)[C@@H](N)CC.O=C(O)C(=O)O (mixture of isomers) [Example 34, 1-2(S)-aminobutyryl-5-hydroxyindoline-2(R/S)-carboxylic Acid Butylamide Oxalate] | 129 to 130 | –
CCCCNC(=O)C1Cc2cc(C)ccc2N1C(=O)[C@@H](N)CC.O=C(O)C(=O)O (mixture of isomers) [Example 35, 1-2(S)-aminobutyryl-5-methylindoline-2(R/S)-carboxylic Acid Butylamide Oxalate] | 110 to 112 | –
CC(C)[C@H](NC(=O)[C@@H]1CCCN1C(=O)[C@H](C)N)B1OC2CC3CC(C3(C)C)C2(C)O1 (stereo partly drawn) [Example 9, L-alanyl-L-prolyl-L-borovaline pinanediol ester] | – | Ki [1]: 0.3 nM; inhibition of the activity of liver TPP II (liver TPP II): 90-100%
CCNC(=O)[C@@H]1Cc2ccccc2N1C(=O)[C@@H](N)CC [Example 17, 1-(2(S)-aminobutyryl)-2(s)-indolinecarboxylic Acid ethylamide] | 115 to 120 | –
CCCCNC(=O)[C@@H]1C[C@@H]2CCCC[C@@H]2N1C(=O)[C@@H](N)CC [Example 22, 1-(2(S)-aminobutyryl)-2(S)-[(3aS,7aS)-perhydro]indolinecarboxylic Acid N-butylamide] (H-[Abu]-[Oic]-NHBu) | – | Ki ([1]; Ki): 560 nM; decrease of the spontaneous taking of solid food [2]: 45%; recovery of released CCK-8 (endogenous CCK-8): 4 fold
CCCCNC(=O)[C@@H]1Cc2cc(OC)ccc2N1C(=O)[C@H](C)N.O=C(O)C(=O)O [Example 26, 1-(L-alanyl)-5-methoxyindoline-2(S)-carboxylic Butylamide Oxalate] | 141 to 143 | Ki ([1]; Ki): 7.5 nM
CCCCNC(=O)[C@@H]1Cc2c(OCC)cccc2N1C(=O)[C@@H](N)CC.O=C(O)C(=O)O [Example 31, 1-(2(S)-aminobutyryl)-4-ethoxyindoline-2(S)-carboxylic Acid Butylamide Oxalate] | 144.7 to 146.2 | Ki ([1]; Ki): 29 nM
CCCCNC(=O)[C@@H]1Cc2cc(O)ccc2N1C(=O)[C@@H](N)CC.O=C(O)C(=O)O [Example 33, 1-(2(S)-aminobutyryl)-5-hydroxyindoline-2(S)-carboxylic Acid Butylamide Oxalate] | 156.5 to 158 | Ki ([1]; Ki): 6.6 nM
CCCCNC(=O)[C@@H]1Cc2cc(Cl)ccc2N1C(=O)[C@@H](N)CC.O=C(O)C(F)(F)F [Example 36, 1-(2(S)-aminobutyryl)-5-chloroindoline-2(S)-carboxylic Acid Butylamide Trifluoroacetate] | 83 to 84 | –
